Results: paper PMC6389703, “Identification of Biologically Active Ganoderma lucidum Compounds and Synthesis of Improved Derivatives That Confer Anti-cancer Activities in vitro” (Frontiers in Pharmacology, 2019)
Read-outs that look alike come from different tables or passages of the source.

Assays:
[1] = system: MDA-MB-231 cells; test: ApoTox-Glo Triplex assay, MDA-MB-231; assay type: cell-based, human; settings: MDA-MB-231, 24 h
Protocol: (§1) Cells (9.5 × 10^4/well in 75 μL of fresh medium) were dispensed in 96-well black flat bottom (8807BC, Corning) plates. The cells were incubated for 12 h at 37°C and then treated with compounds (25 μL) for 24 h. DMSO was used as a negative control, and staurosporine was used as the positive control. […] Then, the Caspase-Glo® 3/7 Reagent was added; plates were mixed briefly by orbital shaking (300-500 rpm for ∼30 s), followed by an additional 30 min incubation at RT. Then luminescence, which correlates with caspase 3/7 activation, was recorded with a plate reader to […] apoptosis induction.

[2] = system: MDA-MB-231 cells; test: De novo in-cell protein synthesis (click assay); assay type: cell-based, human; settings: 2 h; EP 20 μM
Protocol: First, 2.5 × 10^4 cells/well were seeded in 8-well μ-slides (Ibidi®, #80826) and incubated at 37°C for 12 h. The cells were treated with vehicle, compounds Ganoderic acid A or EP, or cycloheximide (positive control) for 2 h to determine protein synthesis as nascent proteins generated using Biovision’s EZClick^TM Global Protein Synthesis Assay Kit, (#K715-100, Milpitas, CA, United States). The assay includes a robust chemical method based on an alkyne containing o-propargyl-puromycin (OP-puro) probe, which stops translation by forming covalent conjugates with nascent polypeptide chains. Truncated polypeptides are rapidly turned over by the proteasome and can be detected based on the subsequent click reaction with a fluorescent azide. The reaction was conducted according to the manufacturer’s protocol. Cells were imaged at 20× with a Nikon C2 scanning confocal microscope, and the whole image montage was quantified by using Gen5 Software and Lionheart^TM FX Automated Microscope (BioTek, Winooski, VT, United States).

[3] = system: MCF-7 cells; test: ROS measurement (CellROX green), MCF-7; assay type: cell-based, human; settings: for ROS increase (fold): GA-01, ergosterol, 5,6-dehydroergosterol 50 µM, EP 20 µM; for ROS formation reduction when co-treated with NAC: NAC 100 µM, TBHP 100 µM
Protocol: (§2) SUM-149 or MDA-MB-231 were plated in 96-well plates at a density of 2 × 10^4 and 1 × 10^4 cells/well, respectively, in black 96-well clear bottom tissue culture plates and incubated for 24 h at 37°C. The mRuby-Mito-7 plasmid was obtained from Addgene (#55874 from Michael Davidson). A stable clone of MCF-7 was generated by using Fugene 6 (Roche) to transfect cells (2 × 10^5) with plasmid (2.0 μg) under neomycin selection. A stable cell line was selected by using G418 (300 μg/mL) for 2 weeks, sorted by flow cytometry, and maintained under G418 thereafter. Transfected MCF-7 cells were plated at a density of 2 × 10^4 cells/well in black 96-well clear bottom tissue culture plates and incubated overnight at 37°C. To test for ROS formation and remove background, cells were replenished with fresh PBS with 2% FBS and treated with the desired compounds for 1 h at 37°C. DMSO (0.5%) was used as a negative control, while Menadione (Mena, at 10 μM) or t-Butyl hydroperoxide (TBHP) at 100 μM final concentration were used as a positive control. To evaluate the compounds’ effects on ROS formation inhibition, the free radical scavenger N-acetyl cysteine (NAC) was used. Cells were treated with or without NAC (500 μM or 100 μM) for 1 h, then CellROX® green reagent (Molecular Probes #C10444) was added to a final concentration of 5 μM, and cells were incubated for an additional 30 min at 37°C. Cells were then washed 2× with PBS, followed by fixation with 4% paraformaldehyde (v/v) for 15 min, and 2 more washes with PBS. Fluorescence intensity was measured in a Clariostar® plate reader (BMG LABTECH, Cary, NC, United States) at 535 nm.

[4] = system: BJ cells; test: cells; assay type: cell-based
Protocol: (§3) Either 1 × 10^3–4.8 × 10^3 or 4 × 10^2–1.2 × 10^3 cells were seeded to each well of 96- or 384-well white polystyrene flat-bottomed plates (3610 or 8804BC, Corning) in 100 μL or 30 μL media per well, respectively. The concentrations used were experimentally determined to ensure logarithmic growth during the duration of the experiment and prevent adverse effects on cell growth by DMSO exposure. The plates were incubated at 37°C in 5% CO2 for 24 h before treatment. Stock solutions of test compounds (10 mM in DMSO) in nine 3-fold serial dilutions were dispensed via pintool (Biomek). The final concentration of DMSO was 0.3% (v/v) in each well. The plates were incubated for 72 h at 37°C in 5% CO2 and then quenched with CellTiter-Glo® reagent (50 μL/well in 96-well plate, 30 μL/well in 384-well plate) at RT. The positive controls included staurosporine (10 μM), gambogic acid (10 μM), and a toxic quinoline generated in-house. Plates were then incubated at RT for 20 min and centrifuged at 1000 rpm for 1 min. The cytotoxicity assay was performed by using the CellTiter-Glo® Luminescent Cell Viability Assay kit (G7570, Promega, Madison, WI, United States) according to the manufacturer’s instructions. Luminescence was recorded in an Envision plate reader (PerkinElmer).
(§4) For the CTG assay, 3 or 4 replicate assays were conducted for each experimental condition, and a minimum of 3 independent experiments were conducted for cellular assays. The mean luminescence of each experimental treatment group was normalized as a percentage of the mean intensity of untreated controls. EC50 values (μM) were calculated by Pipeline Pilot Software (Accelrys, Enterprise Platform, San Diego, CA, United States). EC50 values (μM) from the viability assay were calculated from dose response curve-fitting via non-linear regression by using GraphPad Prism (Version 7.0, San Diego, CA, United States). For cell viability, colony formation, cell-cycle progression, cell death, and western blot assays, the analyses were performed via one-way or two-way ANOVA with post-testing for each condition (concentration, cell cycle stage, apoptotic event, cell line) by using GraphPad Prism.

[5] = system: various breast cancer cell lines; test: Cell viability (CellTiter-Glo or PI staining), various breast cancer cell lines; assay type: cell-based, human; settings: for EC50: Homo sapiens, 72-h treatment, CellTiter-Glo or PI staining
Protocol: as §3
(§5) Cell viability assays (MTT or PI staining assays) in SUM-149, SUM-190, MDA-MB-231, and MCF10A cells were performed as we previously described ([Suarez-Arroyo et al., 2016]).
as §4

[6] = system: SUM-149 cells; test: ApoTox-Glo Triplex assay, SUM-149; assay type: cell-based, human; settings: SUM-149, 24 h
Protocol: as §1

[7] = system: SUM-149 cells; test: Cell viability assay, SUM-149; assay type: cell-based, human
Protocol: as §3, §5, §4

[8] = system: evaluated cell lines; test: Cell viability, evaluated cell lines (palmitic acid); assay type: cell-based; settings: tested concentration ≤100μM
Protocol: Either 1 × 10^3–4.8 × 10^3 or 4 × 10^2–1.2 × 10^3 cells were seeded to each well of 96- or 384-well white polystyrene flat-bottomed plates (3610 or 8804BC, Corning) in 100 μL or 30 μL media per well, respectively. The concentrations used were experimentally determined to ensure logarithmic growth during the duration of the experiment and prevent adverse effects on cell growth by DMSO exposure. The plates were incubated at 37°C in 5% CO2 for 24 h before treatment. Stock solutions of test compounds (10 mM in DMSO) in nine 3-fold serial dilutions were dispensed via pintool (Biomek). The final concentration of DMSO was 0.3% (v/v) in each well. […] Luminescence was recorded in an Envision plate reader (PerkinElmer). […]
as §4, with “For cell viability, colony formation, cell-cycle progression, cell death, and western blot assays, the analyses were performed via one-way or two-way ANOVA with post-testing for each condition (concentration, cell cycle stage, apoptotic event, cell line) by using GraphPad Prism.” left out

[9] = physchem; settings: organic solvent or mixture
[10] = system: SUM-149 cells; test: ROS measurement (CellROX green), SUM-149; assay type: cell-based, human; settings: NAC 500 μM; EP 20 μM, menadione 10 μM
Protocol: as §2

[11] = system: MDA-MB-231 cells; test: ROS measurement (CellROX green), MDA-MB-231; assay type: cell-based, human; settings: NAC 500 μM; menadione 10 μM
Protocol: as §2, with “Cells were treated with or without NAC (500 μM or 100 μM) for 1 h, then CellROX® green reagent (Molecular Probes #C10444) was added to a final concentration of 5 μM, and cells were incubated for an additional 30 min at 37°C. Cells were then washed 2× with PBS, followed by fixation with 4% paraformaldehyde (v/v) for 15 min, and 2 more washes with PBS.” left out

With `C[C@H](CC(=O)C[C@@H](C)[C@H]1C[C@H](O)[C@@]2(C)C3=C(C(=O)C[C@]12C)[C@@]1(C)CCC(=O)C(C)(C)[C@@H]1C[C@@H]3O)C(=O)O` [GA-01, ganoderic acid A] as the molecule, how does the “caspase 3/7 activity” value [1] read?
The value was “increase caspase 3/7 activity”.

And the “viability (GF-AFC)” value [1]?
Its value is “decrease viability”.

What about the “de novo protein synthesis inhibition” value [2] of the same molecule?
Its value is “do not inhibit”.

What about the “ROS increase (fold)” value [3] of the same molecule?
The value was “at least a twofold”.

And the “ROS formation reduction when co-treated with NAC” value (“ROS formation reduction” below) [3]?
The value was 9–25%.

And the “cytotoxic effects in normal BJ cells” value ([4]; at the concentrations tested)?
The value was “did not induce cytotoxic effects”.

What about the EC50 [5] of the same molecule?
The EC50 was greater than 50 µM.

What about the “caspase 3/7 activity” value [6] of the same molecule?
The value was “increase caspase 3/7 activity”.

What about the “viability (GF-AFC)” value [6] of the same molecule?
Its value is “decrease viability”.

Which results are given for `CC(C)[C@@H](C)/C=C/[C@@H](C)[C@H]1CC[C@H]2C3=CC=C4C[C@@H](O)CC[C@]4(C)[C@H]3CC[C@]12C` [ergosterol]?
ROS increase (fold) [3]: at least a twofold; ROS formation reduction when co-treated with NAC [3]: 9–25%; cytotoxic effects in normal BJ cells [4]: did not induce cytotoxic effects; EC50 [5]: > 50 µM; concentration from which cancer cell viability is significantly reduced ([5]; breast cancer cellular models): 64 µM; concentration at which SUM-149 cell viability is significantly reduced ([7]; 72 h): 64 µM

Which EC50 ([4]; Homo sapiens, BJ, Cell Titer Glo, 72-h treatment) does the source give for `CCCCCCCCCCCCCCCC(=O)O` [palmitic acid] here?
Its EC50 is greater than 100 µM.

What about the “activity in the evaluated cell lines” value [8] of the same molecule?
Its value is “did not show activity”.

And the “activity in the evaluated cell lines” value ([8]; listed as Palmitic acid)?
Its value is “No detected biological activity”.

Which “ROS formation reduction” value [3] does the source give for `CC(C)(C)OO` [TBHP, t-Butyl hydroperoxide, reference compound] here?
Its value is roughly 50%.

With `CC(C)C(C)C=CC(C)C1CCC2C3=CCC4CC(O)CCC4(C)C3CCC21C` (stereo not shown) as the molecule, how does the “ROS increase (fold)” value [3] read?
The value was “at least a twofold”.

And the “ROS formation reduction” value [3]?
The value was 9–25%.

And the “cytotoxic effects in normal BJ cells” value [4]?
The value was “did not induce cytotoxic effects”.

And the EC50 [5]?
The EC50 was greater than 50 µM.

What does the source list for `CC(C)[C@@H](C)/C=C/[C@@H](C)[C@H]1CC[C@H]2C34C=CC5(C[C@@H](OC(=O)NS(=O)(=O)c6ccccc6)CC[C@]5(C)C3CC[C@]12C)OO4` (stereo partly shown) [EP sulfonamide, ergosterol peroxide sulfonamide]?
cytotoxic effects in normal BJ cells ([4]; at the concentrations tested): minimal; solubility [9]: ≥ 10 mM; EC50 ([7]; Homo sapiens, SUM149, SUM-149, Figure 10A, read-out: EC50, cancer cell viability (derivatives)): 12 µM

For `CC1=CC(=O)c2ccccc2C1=O` [menadione, Menadione, reference compound], which “reduction in ROS formation in the presence of NAC” value [10] is on record?
The value was “about 20%”.

And the “reduction in ROS formation in the presence of NAC” value [11]?
The value was “about 20%”.
